Experimental data: patent US8008540B2, “Transgenic non-human animal for use in research models for studying Parkinson's disease” (Kampavata AB, priority 2004, dated 2011)
Entries after “also recorded” stand apart in the source; their conditions may differ.

Tested on: homozygous knockout mice (+/DAT-cre; Tfam^loxP/Tfam^loxP)
Test: L-DOPA treatment, open field activity cages (locomotion and rearing)
Format: in vivo, mouse
Experimental: Open field activity was examined in automated activity cages. This consisted of Plexiglas boxes (35×35×18 cm) with a lower and a higher row of infrared sensitive photocells and a microcomputer registering interruption of photocell beams. Animals were tested during the light phase of the light-dark cycle, between 9:00 and 13:00 h. Locomotor activity was registered when animals interrupted the lower row of photocells and rearing was registered when the higher row was interrupted. Animals were individually placed gently in the open field arena and remained there during 60 min. Locomotion and rearing counts were registered every 10 min. For the L-DOPA treatment, spontaneous locomotion and rearing were measured in activity cages as above. Animals were then given i.p. injections of L-DOPA combined with the peripheral dopa decarboxylase inhibitor benzerazide (Madopark 20 mg/kg in PBS; Roche) or PBS and were then immediately put back into the activity cages for another 60 minutes of recording. The scoring of counts was given as mean+/−SEM. Statistical significance was tested using 2-way ANOVA analysis. The open field box was cleaned with 70% alcohol after each test.

[1] = 20 and 30 week old homozygous knockout mice, L-DOPA 20 mg/kg i.p. vs saline, 60 min recording

## N[C@@H](Cc1ccc(O)c(O)c1)C(=O)O [L-DOPA]
20 and 30 week old homozygous knockout mice
  motor performance: improved motor performance
[1]
  locomotion: increased locomotion
  rearing: increase in rearing was similar; also recorded: increase of rearing
Parkinson mouse model, L-DOPA treatment
  progressive movement disorder: partially reversed
Older (30 week old) homozygous knockout mice
  locomotor response, course over time: abruptly terminated
Younger (20 week old) homozygous knockout mice, identical L-DOPA dose
  locomotion response, younger vs older mice: more pronounced and longer lasting locomotion response; also recorded: greater locomotion response
